In article PMC2151668 (The Journal of General Physiology, 2007):
Read-outs that look alike come from different tables or passages of the source. Peptide text beside a SMILES is read from it.

Tests used:
[1] = Acrylamide quenching of W30 tryptophan fluorescence; format: physicochemical
Kv2.1 channel = molecular target: T1, Kv2.1 channel (Rattus norvegicus, UniProt P15387, A366D/I383M/K360G/K386V/S367A/T359S/Y384T); assay: Two-electrode voltage-clamp recording of Kv2.1 expressed in oocytes; format: cell-based
T1 sequence (P15387 1-857 T359S/K360G/A366D/S367A/I383M/Y384T/K386V): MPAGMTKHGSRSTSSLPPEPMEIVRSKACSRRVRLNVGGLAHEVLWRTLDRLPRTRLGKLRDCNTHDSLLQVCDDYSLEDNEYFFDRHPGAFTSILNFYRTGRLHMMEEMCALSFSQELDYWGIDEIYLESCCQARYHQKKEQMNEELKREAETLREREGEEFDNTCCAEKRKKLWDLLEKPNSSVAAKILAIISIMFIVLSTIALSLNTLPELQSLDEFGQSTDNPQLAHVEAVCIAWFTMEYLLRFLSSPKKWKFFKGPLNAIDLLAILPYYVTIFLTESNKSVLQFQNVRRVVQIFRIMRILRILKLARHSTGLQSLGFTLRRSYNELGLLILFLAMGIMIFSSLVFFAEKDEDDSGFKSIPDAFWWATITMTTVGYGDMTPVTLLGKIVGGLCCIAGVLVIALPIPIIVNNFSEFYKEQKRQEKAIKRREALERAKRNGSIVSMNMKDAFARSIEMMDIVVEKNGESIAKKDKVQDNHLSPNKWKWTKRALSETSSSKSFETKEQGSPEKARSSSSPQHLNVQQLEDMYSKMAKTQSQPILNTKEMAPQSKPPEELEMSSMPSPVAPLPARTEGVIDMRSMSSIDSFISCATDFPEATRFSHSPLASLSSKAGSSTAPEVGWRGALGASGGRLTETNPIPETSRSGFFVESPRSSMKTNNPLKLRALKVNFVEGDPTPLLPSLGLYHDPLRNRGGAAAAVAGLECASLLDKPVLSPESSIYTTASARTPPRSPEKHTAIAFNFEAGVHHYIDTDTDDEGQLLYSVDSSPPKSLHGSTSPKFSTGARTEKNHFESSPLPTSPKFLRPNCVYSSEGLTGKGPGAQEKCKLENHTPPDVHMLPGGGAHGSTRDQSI

[2] = for F/F0 max: 1:1 POPG:POPC LUVs; for F/F0 max / λmax: HEB, 100 mM K+
[3] = toxin:lipid 2 μM:0.9 mM, HEB pH 7, n = 3

CC(C)C[C@@H]1NC(=O)[C@H](Cc2c[nH]cn2)NC(=O)[C@H](CCCCN)NC(=O)[C@@H]2CSSC[C@H](NC(=O)[C@@H](N)CCC(=O)O)C(=O)N[C@@H](CCCNC(=N)N)C(=O)N[C@@H](Cc3ccc(O)cc3)C(=O)N[C@@H](CC(C)C)C(=O)N[C@@H](Cc3ccccc3)C(=O)NCC(=O)NCC(=O)N[C@H]3CSSC[C@H](NC(=O)CNC1=O)C(=O)N[C@@H](CCCCN)C(=O)N[C@@H](Cc1ccccc1)C(=O)N[C@@H](CCCNC(=N)N)C(=O)N[C@@H](CC(=O)O)C(=O)N[C@@H](CCCCN)C(=O)N[C@@H](Cc1ccc(O)cc1)C(=O)N[C@H](C(=O)N[C@@H](C)C(=O)N[C@@H](Cc1c[nH]c4ccccc14)C(=O)N[C@@H](CC(=O)O)C(=O)N[C@@H](Cc1ccccc1)C(=O)N[C@H](C(=O)N[C@@H](Cc1ccccc1)C(=O)N[C@@H](CO)C(=O)O)[C@@H](C)O)CSSC[C@H](NC(=O)[C@H](CC(=O)O)NC(=O)[C@H](CO)NC(=O)[C@H]([C@@H](C)O)NC(=O)[C@H]([C@@H](C)O)NC(=O)[C@H](CCCCN)NC3=O)C(=O)N2 [Hanatoxin] (HELM PEPTIDE1{E.C.R.Y.L.F.G.G.C.K.T.T.S.D.C.C.K.H.L.G.C.K.F.R.D.K.Y.C.A.W.D.F.T.F.S}$PEPTIDE1,PEPTIDE1,2:R3-16:R3|PEPTIDE1,PEPTIDE1,9:R3-21:R3|PEPTIDE1,PEPTIDE1,15:R3-28:R3$$$V2.0; N-terminus and C-terminus assumed)
Stern-Volmer constant (KSV), Solution ([1]; toxin 2 μM in solution, no lipid vesicles, n = 3): 48 ± 3 M⁻¹
Stern-Volmer constant (KSV), POPC, HEB [1, 3]: 10 ± 0.5 M⁻¹
Stern-Volmer constant (KSV), POPC:POPG, HEB [1, 3]: 7 ± 0.1 M⁻¹
Stern-Volmer constant (KSV), POPC:POPG, PB ([1]; toxin:lipid 2 μM:0.9 mM, PB (10 mM HEPES, 100 mM KCl, 1 mM MgCl2, 0.3 mM CaCl2, pH 7.6), n = 3): 18 ± 0.2 M⁻¹
Stern-Volmer constant (KSV), POPC, PB ([1]; toxin:lipid 2 μM:0.9 mM, PB pH 7.6, n = 3): 23 ± 0.7 M⁻¹
effect on Kv2.1 channel opening (Kv2.1 channel; 4 μM hanatoxin in external solution, oocytes, n = 3): pronounced inhibition of opening at negative voltages
time for channel activity to recover to control values after toxin removal (Kv2.1 channel; control (untreated) oocytes, 500 nM hanatoxin): ~1,000 s
F/F0 max ([2]; 1 mM free Ca2+, n = 3): 2.1 ± 0.1
F/F0 max ([2]; pH 7, n = 3): 2.0 ± 0.02
λmax ([2]; +POPG:POPC vesicles, 1 mM free Ca2+): 350.0 nm
λmax ([2]; +POPG:POPC vesicles, pH 7): 344.3 nm
Kx ([2]; as printed in legend, anionic vesicles, HEB with 100 mM KCl, n = 3): (5.3 ± 0.03) × 10^5
λmax ([2]; toxin in solution without lipid, 1 mM free Ca2+): 353.7 nm
blue shift in fluorescence emission spectrum ([2]; upon addition of 1:1 POPC:POPG vesicles (2.4 mM), HEB pH 7): 10.9 nm
